Source: patent EP2476670A1, “Stable solid salts of ambrisentan” (Zentiva, K.S., priority 2011, dated 2012)
Where a name gives a salt, the structure may show the parent alone. Read-outs that look alike come from different tables or passages of the source.

Columns and labels:
[1] = Solubility of ambrisentan solid forms in water at 25 °C; assay type: physicochemical; settings: approximate values
Procedure: Solubility of all the salts are considerably higher compared to solubility of ambrisentan in the salt free form. Table. 1 Solubility of ambrisentan solid forms in water at 25 °C

[2] = pKa of the ionisable groups of ambrisentan; assay type: physicochemical

Row | Solubility ([1]; sodium salt) [µg/mL] | Solubility [1] | further results | Structure (SMILES)
1 | >5000 |  |  | COC(c1ccccc1)(c1ccccc1)[C@H](Oc1nc(C)cc(C)n1)C(=O)O [Ambrisentan sodium salt (crystalline), ambrisentan sodium salt]
2 |  | ∼ 0.05 mg/ml | pKa ([2]; read-out: pKa of nitrogen in pyrimidine ring): 2.98 ± 0.3; pKa ([2]; read-out: pKa of the carboxylic group): 0.93 ± 0.1 | COC(c1ccccc1)(c1ccccc1)[C@H](Oc1nc(C)cc(C)n1)C(=O)O [Ambrisentan (Form R), (S)-2-(4,6-dimethylpyrimidin-2-yloxy)-3-methoxy-3,3-diphenylpropanoic acid]
3 | >10000 |  |  | COC(c1ccccc1)(c1ccccc1)[C@H](Oc1nc(C)cc(C)n1)C(=O)O [Ambrisentan sodium salt (amorphous), ambrisentan sodium salt]
4 |  | >6000 µg/mL |  | COC(c1ccccc1)(c1ccccc1)[C@H](Oc1nc(C)cc(C)n1)C(=O)O [Ambrisentan tert-butylammonium salt, ambrisentan tert-butylammonium salt]
5 |  |  | Solubility ([1]; phosphate salt): ∼ 0.1 mg/ml | COC(c1ccccc1)(c1ccccc1)[C@H](Oc1nc(C)cc(C)n1)C(=O)O [Ambrisentan phosphate salt, ambrisentan phosphate salt]
